Measured values reported in US20260137788A1, “INFLAMMATION STIMULI RESPONSIVE PEPTIDE BRUSH POLYMERS” (NORTHWESTERN UNIVERSITY, priority 2021, published 2026).
Ends that are not written are not given here.

Experiments:
[1] = tested on: Sprague Dawley rats, IR MI; assay: Efficacy on LV function by MRI; format: in vivo, rat; conditions: tail-vein injection 1-day post-MI, MRI 3 days and 5 weeks post-injection
Experimental: Methods 5.1: Assessing Efficacy of L-PLPMMPi on LV Function. Male and female Sprague Dawley rats undergo IR procedures as previously described in Example 2. Prior to surgery, all animals undergo magnetic resonance imaging (MRI) to establish a baseline for LV ejection fraction (EF), wall thickness, end diastolic volume (EDV), and end systolic volume (ESV). […] MRI is performed at 3 days and 5 weeks (n=7 per sex for saline, MMPi, L-PLP, and L-PLPMMPi treated animals with randomized groups for each harvest timepoint) post-injection to assess cardiac function via LV EF, wall thickness, EDV, and ESV. For power analysis, an a value of 0.05 and a power of 0.8 was used to determine experimental sample sizes with additional rats based on an expected 30% mortality from surgical procedures. A 2-way ANOVA with post-hoc Tukey Test is then performed with significance at α=0.05.

[2] = Diffusion Ordered Spectroscopy (DOSY) NMR diffusion rate; format: physicochemical; conditions: in deuterated water
Experimental: ^1H Nuclear Magnetic Resonance (^1H NMR): ^1H NMR data was recorded on either a Bruker Avance III HD 500 MHz spectrometer, a Bruker Avance III 600 MHz spectrometer, or a Bruker Neo 600 MHz spectrometer. The 500 MHz spectrometer was primarily used for small molecule characterization, the Bruker Avance III 600 MHz spectrometer was used for polymerization kinetics studies, and the Bruker Neo 600 MHz spectrometer was used for diffusion ordered spectroscopy (DOSY) studies done on PLPs in deuterated buffered saline. ^1H NMR chemical shifts are given in reference to residual proton peaks from either the DMSO-d6 or the DMF-d7 solvent.
(§1) Characterization Results: The molar mass of both unlabeled and labeled AAK20 PLPs were analyzed by SDS PAGE using a polyacrylamide gel with a pore gradient of 4-15% (cat #: 4561083) and Precision Plus Kaleidoscope Protein Standard (cat #: 1610395). The mass of both AAK20 and Cy5.5-AAK20 samples were ˜20 kDa and found to correspond with the average molecular weight of an AAK PLP with a DP of 20 (FIG. 9A). […] The diffusion rate of AAK20 in deuterated water was analyzed by Diffusion Ordered Spectroscopy (DOSY) NMR. […] Additional physical characterization of AAK20 by dry state Transmission Electron Microscopy (TEM) was performed to provide complementary data to SDS PAGE, DLS, and DOSY NMR.

[3] = Dry state Transmission Electron Microscopy (TEM); format: physicochemical
Experimental: as §1

[4] = Dynamic Light Scattering (DLS) average diameter; format: physicochemical; conditions: in PBS
Experimental: as §1

Compound	LV ejection fraction (EF), pre- vs post-MI (MRI) [1]	end diastolic volume (EDV), pre- vs post-MI (MRI) [1]	end systolic volume (ESV), pre- vs post-MI (MRI) [1]	wall thickness, pre- vs post-MI (MRI) [1]	diffusion rate by DOSY NMR [2]	morphology by dry state TEM [3]	average diameter by DLS [4] [nm]
CC(C)[C@H](NS(=O)(=O)c1ccc(-c2ccc(Br)cc2)cc1)C(=O)O [MMPi, PD166793]	decreased	increased	increased	negligible differences			
AAK20: PLP made by ROMP of norbornene AAK monomer (SEQ ID NO: 142, AAKAAKAA) at 20 molar equivalence to Grubbs catalyst; unlabeled (AAKAAKAA-NH2; also: norbornene monomer polymerized by ROMP into PLP)					approximately 1×10^−6 cm^2/s	nanoscale globular assemblies	< 10
